Laboratory results as given in ChEMBL document CHEMBL4806962, “Methods and Compositions for Treating Cancer” (2020).
Calls of active or inactive are those of the source.

Tests used:
[1] = tested on: PBMC; experiment: Effects of compound on IL-10 production in anti-CD3/CD28-stimulated human PBMCs assessed as fold increase in IL-10 level at 30 uM after 2 days by ELISA; format: functional, tissue-based; details: time 2.0 day
[2] = tested on: PBMC; experiment: Effect of compound on human PBMCs assessed as reduction in CTLA4 expression in memory non-Treg cells after 1 day by flow cytometric analysis; format: functional, cell-based; details: dose 0.19-6 µM
[3] = tested on: PBMC; experiment: Effects of compound on INF-gamma production in anti-CD3/CD28-stimulated human PBMCs assessed as increase in INF-gamma level after 2 days by ELISA; format: functional, tissue-based; details: dose 1-10 µM, time 2.0 day
[4] = tested on: PBMC; experiment: Effect of compound on human PBMCs assessed as reduction in PD-L1 expression in CD4-positive T cells after 1 day by flow cytometric analysis; format: functional, cell-based; details: dose 1.25-5 µM
[5] = tested on: PBMC; experiment: Effects of compound on INF-gamma production in anti-CD3/CD28-stimulated human PBMCs assessed as fold increase in INF-gamma level at 30 uM after 2 days by ELISA; format: functional; details: time 2.0 day
[6] = tested on: PBMC; experiment: Effects of compound on IL-2 production in anti-CD3/CD28-stimulated human PBMCs assessed as increase in IL-2 level at 30 uM after 2 days by ELISA; format: functional, tissue-based; details: time 2.0 day
[7] = tested on: PBMC; experiment: Effects of compound on IL-6 production in anti-CD3/CD28-stimulated human PBMCs assessed as fold increase in IL-6 level at 30 uM after 2 days by ELISA; format: functional, tissue-based; details: time 2.0 day
[8] = tested on: Splenocyte; experiment: Effects of compound on IL-2 production in anti-CD3/CD28-stimulated GPR174 knock out mouse spleenocytes assessed as fold increase in IL-2 level at 0.3 uM after 2 days in presence of NECA; format: functional, cell-based; details: time 2.0 day
[9] = tested on: CD4+ve Th; experiment: Reduction in AREG expression in human CD4-positive T-cells at 10 uM in presence of A2aR inhibitor ZM-241385; format: functional
[10] = Ratio of FC for induction of INF-gamma production in anti-CD3/CD28-stimulated human PBMCs at 1 uM after 24 hrs in presence of ZM-241385 and MRS-1754 to FC for induction of INF-gamma production in anti-CD3/CD28-stimulated human PBMCs at 1 uM after 24 hrs in presence of ZM-241385 and absence of MRS-1754; format: functional, PBMC
[11] = Effects of compound on anti-CD3/CD28-stimulated human PBMCs assessed as CD4-positive cells population at 10 uM after 2 days by flow cytometric analysis; format: functional, PBMC; details: time 2 day
[12] = Effects of compound on anti-CD3/CD28-stimulated human PBMCs assessed as non-T cells population at 10 uM after 2 days by flow cytometric analysis; format: functional, PBMC; details: time 2 day
[13] = tested on: PBMC; experiment: Effect of compound on human PBMCs assessed as reduction in CTLA4 expression in non-Treg cells after 1 day by flow cytometric analysis; format: functional, cell-based; details: dose 0.19-6 µM
[14] = target: T1, Probable G-protein coupled receptor 174 (Homo sapiens, UniProt Q9BXC1); experiment: Antagonist activity at GPR174 (unknown origin) expressed in HEK293 cells assessed as inhibition of PS-induced GPR174 signaling incubated for 15 mins by GloSensor assay; format: functional, cell-based; details: filed as antagonist
T1 sequence (Q9BXC1 whole entry): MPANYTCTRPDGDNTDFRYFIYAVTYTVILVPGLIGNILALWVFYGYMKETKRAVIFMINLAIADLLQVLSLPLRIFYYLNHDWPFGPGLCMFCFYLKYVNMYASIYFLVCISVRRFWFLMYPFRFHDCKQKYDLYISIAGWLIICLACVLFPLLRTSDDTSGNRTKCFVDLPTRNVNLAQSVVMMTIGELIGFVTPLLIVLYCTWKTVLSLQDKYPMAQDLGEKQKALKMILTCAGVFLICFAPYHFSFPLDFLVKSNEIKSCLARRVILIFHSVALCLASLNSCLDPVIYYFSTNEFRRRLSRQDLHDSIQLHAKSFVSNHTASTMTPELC

[15] = tested on: PBMC; experiment: Effects of compound on IL-2 production in anti-CD3/CD28-stimulated human PBMCs assessed as increase in IL-2 level after 3 days by ELISA; format: functional, tissue-based; details: dose 3-60 µM, time 3.0 day
[16] = Effects of compound on anti-CD3/CD28-stimulated human PBMCs assessed as CD8-positive cells population at 10 uM after 2 days by flow cytometric analysis; format: functional, PBMC; details: time 2 day
[17] = Effects of compound on anti-CD3/CD28-stimulated human PBMCs assessed as non-T cells population at 10 uM after 4 hrs by flow cytometric analysis; format: functional, PBMC
[18] = target: T1, Probable G-protein coupled receptor 174; experiment: Inverse agonist activity at GPR174 in anti-CD3/CD28-stimulated human PBMCs assessed as reduction in FoxP3-positive Helios-positive nTreg cells after 7 days by flow cytometric analysis; format: functional, tissue-based; details: PBMC, filed as inverse agonist, dose 3-30 µM, time 7.0 day
[19] = tested on: PBMC; experiment: Effects of compound on TNF-alpha production in anti-CD3/CD28-stimulated human PBMCs assessed as fold increase in TNF-alpha level at 30 uM after 2 days by ELISA; format: functional, tissue-based; details: time 2.0 day
[20] = target: T1, Probable G-protein coupled receptor 174; experiment: Inverse agonist activity at GPR174 in anti-CD3/CD28-stimulated human PBMCs assessed as reduction in FoxP3-positive Helios-positive nTreg cells at 100 uM after 7 days by flow cytometric analysis; format: functional, tissue-based; details: PBMC, filed as inverse agonist, time 7.0 day
[21] = Ratio of FC for induction of IL-2 production in anti-CD3/CD28-stimulated human PBMCs at 1 uM after 24 hrs in presence of ZM-241385 and MRS-1754 to FC for induction of IL-2 production in anti-CD3/CD28-stimulated human PBMCs at 1 uM after 24 hrs in presence of ZM-241385 and absence of MRS-1754; format: functional, PBMC
[22] = Induction of IL-2 production in anti-CD3/CD28-stimulated human PBMCs assessed as fold increase in IL-2 level at 1 uM after 24 hrs in presence of 0.1 uM A2aR inhibitor PBF-509 by ELISA; format: functional, PBMC
[23] = Ratio of FC for induction of TNF production in anti-CD3/CD28-stimulated human PBMCs at 1 uM after 24 hrs in presence of PBF-509 and MRS-1754 to FC for induction of TNF production in anti-CD3/CD28-stimulated human PBMCs at 1 uM after 24 hrs in presence of PBF-509 and absence of MRS-1754; format: functional, PBMC
[24] = target: T1, Probable G-protein coupled receptor 174; experiment: Inverse agonist activity at GPR174 in anti-CD3/CD28-stimulated human PBMCs assessed as reduction in FoxP3-positive Helios-positive nTreg cells at 30 uM after 7 days by flow cytometric analysis; format: functional, tissue-based; details: PBMC, filed as inverse agonist, time 7.0 day
[25] = tested on: PBMC; experiment: Effect of compound on human PBMCs assessed as reduction in CTLA4 expression in memory Treg cells after 1 day by flow cytometric analysis; format: functional, cell-based; details: dose 0.19-6 µM
[26] = tested on: PBMC; experiment: Effects of compound on IL-2 production in anti-CD3/CD28-stimulated human PBMCs assessed as increase in IL-2 level after 2 days by ELISA; format: functional, tissue-based; details: dose 1-10 µM, time 2.0 day
[27] = Induction of TNF production in anti-CD3/CD28-stimulated human PBMCs assessed as fold increase in TNF level at 1 to 2 uM after 24 hrs in presence of A2aR inhibitor ZM-241385 by ELISA; format: functional, PBMC; details: dose 1-2 µM
[28] = Induction of TNF production in anti-CD3/CD28-stimulated human PBMCs assessed as fold increase in TNF level at 1 uM after 24 hrs in presence of 0.75 ug/ml ADA by ELISA; format: functional, PBMC
[29] = tested on: Splenocyte; experiment: Effects of compound on IL-2 production in anti-CD3/CD28-stimulated GPR174 knockdown mouse splenocytes assessed as increase in IL-2 levels at 10 uM after 48 hrs; format: functional, cell-based
[30] = tested on: PBMC; experiment: Effect of compound on human PBMCs assessed as reduction in CTLA4 expression in naive Treg cells after 1 day by flow cytometric analysis; format: functional, cell-based; details: dose 0.19-6 µM
[31] = tested on: Splenocyte; experiment: Effects of compound on IL-2 production in anti-CD3/CD28-stimulated wild type mouse splenocytes assessed as increase in IL-2 levels at 10 uM after 48 hrs; format: functional, cell-based

CC1CCN(c2cc(N3CCN(S(=O)(=O)c4ccccc4)CC3)c([N+](=O)[O-])cc2F)CC1
27.5%: Activity [16]
inactive: Activity [8] | Activity [29]
1: Ratio [10] | Ratio [23]
1.9: fold change (FC) [22] | fold change (FC) [28]
33.9%: Activity [17]
31.8%: Activity [11]
0.7: Ratio [21]
33.1%: Activity [12]
8: fold change (FC) [27]
active: Activity [1] | Activity [2] Dose-Dependent Effect | Activity [3] Dose-Dependent Effect | Activity [4] Dose-Dependent Effect | Activity [5] | Activity [6] | Activity [7] | Activity [9] | Activity [13] Dose-Dependent Effect | Activity [14] Dose-Dependent Effect | Activity [15] Dose-Dependent Effect | Activity [18] Dose-Dependent Effect | Activity [19] | Activity [20] | Activity [24] | Activity [25] Dose-Dependent Effect | Activity [26] Dose-Dependent Effect | Activity [30] Dose-Dependent Effect | Activity [31]
